In publication PMC4965777, “Molecular characterization of Tps1 and Treh genes in Drosophila and their role in body water homeostasis” (Scientific Reports, 2016):

Key:
Assay type in all cases: biochemical
CG5171 = biological target: T1, CG5171 (Drosophila melanogaster, UniProt Q9VM19); experiment: dephosphorylation; trehalose released determined with trehalase and glucose assay kit; details: 0.5 mM T6P; 5 mM MgCl2; PBS-type phosphate buffer pH 7.4; 30 °C; 0.02 nmol enzyme in 30 μl
T1 construct: gene Tpp; N-terminal His-tag (pET28a), E. coli BL21(DE3), Ni-NTA
T1 sequence (Q9VM19 1-273): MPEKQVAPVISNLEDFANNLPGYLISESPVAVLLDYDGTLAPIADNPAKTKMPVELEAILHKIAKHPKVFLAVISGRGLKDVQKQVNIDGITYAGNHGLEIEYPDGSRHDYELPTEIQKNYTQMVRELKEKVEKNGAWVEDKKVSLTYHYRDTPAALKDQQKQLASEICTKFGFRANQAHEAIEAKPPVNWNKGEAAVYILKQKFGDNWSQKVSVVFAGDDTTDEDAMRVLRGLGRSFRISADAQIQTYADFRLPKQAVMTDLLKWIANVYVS

Tps1-TPP = biological target: T2, Tps1-TPP (Drosophila melanogaster, UniProt Q9Y119); experiment: as above; details: 0.5 mM T6P; 5 mM MgCl2; PBS-type phosphate buffer pH 7.4; 30 °C; 0.02 nmol enzyme in 30 μl
T2 construct: C-terminal TPP domain only (borders not in text), N-terminal His-tag (pET28a), E. coli BL21(DE3), Ni-NTA

OtsB = biological target: T3, OtsB (Escherichia coli, UniProt P31678); experiment: as above; details: 0.5 mM T6P; 5 mM MgCl2; PBS-type phosphate buffer pH 7.4; 30 °C; 0.02 nmol enzyme in 30 μl
T3 construct: N-terminal His-tag (pET28a), E. coli BL21(DE3), Ni-NTA

cTreh = biological target: T4, cTreh (Drosophila melanogaster, UniProt A4UZR3); experiment: trehalose hydrolysis; glucose released determined with glucose assay kit; details: 5 μg trehalose; 0.12 pmol His-cTreh in 15 μl PBS; 30 °C, 2 h
T4 construct: gene Treh; cytoplasmic isoform without signal peptide, N-terminal His-tag (pET28a), E. coli BL21(DE3), Ni-NTA
T4 sequence (A4UZR3 1-560): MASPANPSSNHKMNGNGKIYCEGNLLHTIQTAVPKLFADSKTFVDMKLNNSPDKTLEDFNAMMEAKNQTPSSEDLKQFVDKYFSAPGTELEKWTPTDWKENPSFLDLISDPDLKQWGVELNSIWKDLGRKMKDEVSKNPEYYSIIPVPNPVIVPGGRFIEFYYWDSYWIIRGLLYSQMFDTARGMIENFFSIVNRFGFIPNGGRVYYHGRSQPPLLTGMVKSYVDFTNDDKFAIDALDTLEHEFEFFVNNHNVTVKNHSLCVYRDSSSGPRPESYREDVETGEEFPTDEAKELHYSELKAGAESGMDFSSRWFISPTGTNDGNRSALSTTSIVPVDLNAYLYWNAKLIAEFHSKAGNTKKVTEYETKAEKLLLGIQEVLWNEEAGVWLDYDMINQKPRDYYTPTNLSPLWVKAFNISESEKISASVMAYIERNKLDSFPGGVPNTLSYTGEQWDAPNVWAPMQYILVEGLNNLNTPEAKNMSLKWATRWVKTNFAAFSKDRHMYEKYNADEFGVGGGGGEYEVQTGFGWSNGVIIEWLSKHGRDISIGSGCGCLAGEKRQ

T3 sequence (P31678 whole entry): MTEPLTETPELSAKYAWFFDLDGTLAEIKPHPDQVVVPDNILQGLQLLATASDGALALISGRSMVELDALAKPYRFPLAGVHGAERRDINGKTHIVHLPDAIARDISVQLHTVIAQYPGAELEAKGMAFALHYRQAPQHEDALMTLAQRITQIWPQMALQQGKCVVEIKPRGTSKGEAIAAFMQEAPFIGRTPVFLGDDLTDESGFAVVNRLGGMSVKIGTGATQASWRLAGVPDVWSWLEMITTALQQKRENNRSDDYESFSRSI
T2 sequence (Q9Y119 entry or part of it): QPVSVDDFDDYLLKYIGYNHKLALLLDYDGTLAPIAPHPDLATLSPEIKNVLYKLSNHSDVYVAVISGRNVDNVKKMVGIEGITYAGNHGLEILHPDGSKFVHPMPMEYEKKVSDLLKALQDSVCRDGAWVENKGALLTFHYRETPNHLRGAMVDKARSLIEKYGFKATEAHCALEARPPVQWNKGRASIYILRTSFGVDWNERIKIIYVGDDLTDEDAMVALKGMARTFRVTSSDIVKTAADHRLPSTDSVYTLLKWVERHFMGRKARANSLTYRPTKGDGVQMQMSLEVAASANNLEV

| SMILES | dephosphorylation; trehalose released determined with trehalase and glucose assa (CG5171) | dephosphorylation; trehalose released determined with trehalase and glucose assa (Tps1-TPP) | dephosphorylation; trehalose released determined with trehalase and glucose assa (OtsB) | trehalose hydrolysis; glucose released determined with glucose assay kit (cTreh) |
| --- | --- | --- | --- | --- |
| O=P(O)(O)OC[C@H]1O[C@H](O[C@H]2O[C@H](CO)[C@@H](O)[C@H](O)[C@H]2O)[C@H](O)[C@@H](O)[C@@H]1O [trehalose-6-phosphate] | recombinant Tps1-TPP and CG5171, but not CG5177, dephosphorylated T6P under our experimental conditions | recombinant Tps1-TPP and CG5171, but not CG5177, dephosphorylated T6P under our experimental conditions | Tps1-TPP showed a lower activity than CG5171 and OtsB in vitro | – |
| OC[C@H]1O[C@H](O[C@H]2O[C@H](CO)[C@@H](O)[C@H](O)[C@H]2O)[C@H](O)[C@@H](O)[C@@H]1O [trehalose] | – | – | – | The recombinant cTreh exhibited a specific breakdown of trehalose to produce glucose in vitro |
